Measured values published in patent US20040092528A1, “Agent for modulating excitatory synaptic transmission comprising a compound having alpha7 nicotinic acetylcholine receptor activation property” (priority 2000, published 2004).
Like-named read-outs stand apart in the source and are kept apart here.

Legend:
[1] = biological target: α7 nicotinic ACh receptor (Rattus norvegicus, UniProt Q05941); experiment: Effect of FK960 on EPSP amplitude in the presence of α7 nicotinic ACh receptor antagonists; format: cell-based
Chain of α7 nicotinic ACh receptor (Q05941 23-502): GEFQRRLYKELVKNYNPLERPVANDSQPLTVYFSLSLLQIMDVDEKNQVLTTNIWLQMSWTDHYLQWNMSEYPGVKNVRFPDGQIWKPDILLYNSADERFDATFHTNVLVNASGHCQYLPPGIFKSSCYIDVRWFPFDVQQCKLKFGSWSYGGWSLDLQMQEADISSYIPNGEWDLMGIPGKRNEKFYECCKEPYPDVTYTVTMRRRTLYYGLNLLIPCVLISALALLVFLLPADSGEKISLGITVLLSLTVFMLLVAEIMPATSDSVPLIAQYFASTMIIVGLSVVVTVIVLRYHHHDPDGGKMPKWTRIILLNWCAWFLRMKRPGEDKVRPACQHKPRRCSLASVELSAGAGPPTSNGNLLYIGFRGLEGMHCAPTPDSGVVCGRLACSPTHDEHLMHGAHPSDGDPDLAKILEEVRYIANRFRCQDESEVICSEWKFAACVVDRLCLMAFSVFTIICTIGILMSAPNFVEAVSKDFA

[2] = tested on: CA1 neurones; experiment: Excitatory post-synaptic current (EPSC) in CA1 neurones voltage clamped at −70 mV; format: cell-based, rat
[3] = tested on: CA1 neurones; experiment: GABAergic inhibitory post-synaptic current (IPSC) in voltage clamped CA1 neurones; format: cell-based, rat
[4] = tested on: guinea-pig hippocampus; details: cited from earlier work
[5] = tested on: rats; details: rats in vivo; cited from earlier work
[6] = tested on: CA1 neurones in rat hippocampal slices; experiment: EPSP recording (amplitude, slope, quantal content) in CA1 neurones in rat hippocampal slices; format: cell-based; details: for increase in EPSP slope: dose-response series
[7] = tested on: rat hippocampus; details: cited from earlier work
[8] = tested on: cholinergic receptors; experiment: Displacement of radiolabelled ligands with high affinity to cholinergic receptors; format: binding; details: a number of assays
[9] = tested on: CA1 neurones; experiment: Membrane potential and input resistance of CA1 neurones; format: cell-based, rat; details: FK960 94 nM and 100 nM, n=11, average exposure 30 mins
[10] = one CA1 neurone (FIG. 1), 100 nM FK960

## α-bungarotoxin [reference compound]
[1]
  effect of antagonist on the action of FK960 on the EPSP: attenuated
  mean EPSP amplitude: 1.6 mV

## O=C(c1ccc2nccnc2c1)N1CCCCC1 [FR212436, 1-(quinoxalin-6-ylcarbonyl)piperidine]
[2]; 200 μM FR212436 for 20 min, n=3, 15.0 ms before
  EPSC decay time constant τEPSC: 22.4 ms
[2]; 200 μM FR212436 for 20 min, n=3, 84 pA before
  EPSC amplitude: 181.3 pA
[2]; 2 mM FR212436 for 5-10 min, n=3, 21.5 ms before
  EPSC decay time constant τEPSC: 46.7 ms
[2]; 2 mM FR212436 for 5-10 min, n=3, 73.7 pA before
  EPSC amplitude: 239.7 pA
[2]; one neurone (FIG. 5A), FR212436 200 μM, 42 pA before
  EPSC amplitude: 95 pA
[2]; one neurone (FIG. 5B), FR212436 2 mM, 87 pA before
  EPSC amplitude: 247 pA

## CC(=O)N1CCN(NC(=O)c2ccc(F)cc2)CC1 [FK960, N-(4-acetyl-1-piperazinyl)-p-fluorobenzamide monohydrate]
[3]; 100 nM FK960
  effect on the IPSC: no significant effect
[3]; 3 experiments, FK960, 48 pA in control aCSF
  Mean IPSC amplitude: 46 pA
[3]; one CA1 neurone (FIG. 4), 21 minutes in FK960, 39 pA in control aCSF
  IPSC peak amplitude: 38 pA
[1]
  increase in mean EPSP amplitude: 11%
  mean EPSP amplitude: 2.0 mV
[1]; 21 minutes exposure to 100 nM FK960 in 100 nM MLA, 5 CA1 neurones, unchanged
  mean EPSP amplitude: 2.6 mV
[1]; FK960 in 10 nM MLA, 21 minutes, n=3, from 3.1 mV
  rise in EPSP amplitude: 10%
[4]; guinea pig hippocampus, 100 nM FK960
  effect on magnitude of long-term potentiation: significantly increased the magnitude of long-term potentiation
[4]; guinea-pig hippocampus in vitro
  effect on magnitude of long-term potentiation: increase the magnitude of long-term potentiation
[5]
  effect on scopolamine-induced cognitive deficits: reverse scopolamine-induced cognitive deficits
[2]; 4 experiments, 20-22 mins exposure to 100 nM FK960, 22.2 ms before
  EPSC decay time constant τEPSC: 28.4 ms
[2]; 4 experiments, 20-22 mins exposure to 100 nM FK960, 98.3 pA before
  EPSC amplitude: 158.3 pA
[2]; one neurone (FIG. 5C), FK960, 103 pA before
  EPSC amplitude: 175 pA
[6]; 0, 50, 100, 200 nM FK960, EPSP slope
  dose-response relationship (shape): bell-shaped
[6]; 100 nM FK960, 21 min, n=9 neurones
  increase in mean EPSP amplitude: 65%
[6]; 100 nM FK960, 21 min, n=9 neurones, 2.3 mV before
  mean EPSP amplitude: 3.8 mV
[6]; 100 nM FK960, 21 minutes, pooled neurones
  mean increase in 1/CV^2 (quantal content): 53%
[6]; 100 nM FK960, 21 minutes, 6.4 before
  1/CV^2 (quantal content), mean: 9.8
[6]; 100 nM FK960, after 21 mins, n=9
  increase in mean EPSP slope: 51%
[6]; 100 nM FK960, after 21 mins, n=9, 357.8 mV/s before
  mean EPSP slope: 540.5 mV/s
[6]; 4 neurones, 20-30 min after exposure to 100 nM FK960, 0.65 before
  frequency of spontaneous EPSPs: 0.54 spontaneous EPSP/sec
[6]; after 21 minutes exposure to 100 nM FK960, 7 neurones, 0.39 mV before
  mean quantum size: 0.42 mV
[6]; after 27 mins in FK960, n=7
  increase in EPSP amplitude: 64%
[6]; after 27 mins in FK960, n=7, 2.2 mV before
  EPSP amplitude: 3.6 mV
[6]; 50 nM FK960
  increase in EPSP slope: smaller and not significant
[6]; 100 nM FK960, n=5, after 21 mins, control aCSF 11%
  increase in EPSP slope: 55%
[6]; 200 nM FK960
  increase in EPSP slope: smaller and not significant
[6]; [10]
  increase in mean EPSP amplitude: 123%
  rise in quantal content: 109%
[6]; one CA1 neurone (FIG. 1), 100 nM FK960, n=287 EPSPs, 2.6 mV in control aCSF
  mean EPSP amplitude: 5.8 mV
[6]; one CA1 neurone (FIG. 1), 21 min 40 sec after 100 nM FK960
  increase in slope of the rising phase of the averaged EPSP: 127%
[6]; one CA1 neurone (FIG. 1), 21 min 40 sec after 100 nM FK960, 326.7 mV/s before
  slope of the rising phase of the averaged EPSP: 742.8 mV/s
[6]; one CA1 neurone (FIG. 1), after 20 mins in 100 nM FK960, 6.4 before
  quantal content (1/CV^2): 13.4
[6]; one CA1 neurone (FIG. 1), after 21 min in 100 nM FK960, 2.6 mV (n=50) before
  mean EPSP amplitude: 5.5 mV
[7]
  effect on amplitude of the un-potentiated population spike: increases the amplitude of the un-potentiated population spike
[8]
  displacement of radiolabelled ligands with high affinity to cholinergic receptors: failed to displace
[9]; 175.3 MΩ in control aCSF
  input resistance: 164.2 MΩ
[9]; −60.3 mV in control aCSF
  resting membrane potential: −59.4 mV
